A short description of series [1]: Rat liver microsome stability assay. It counts as in vitro ADME. As to conditions: rat liver microsomes (male Sprague-Dawley), 0.5 μM test compound, 0.25 mg/mL microsomal protein, pH 7.4, 37° C.; read-out: Stability in rat liver microsomes (t1/2 in minutes). In general terms: Liver microsomes are vesicles of endoplasmic reticulum, rich in cytochrome P450 enzymes.
The target of series [2] is human BRD4 first bromodomain (BDI_K57-E168) (Homo sapiens (Human), UniProt O60885). The series can be described thus: TR-FRET bromodomain binding assay, BRD4 first bromodomain. In general terms: Time-resolved FRET reads energy transfer from a long-lived donor to a nearby acceptor.
The nature of series [3]: Mouse liver microsome stability assay. As to conditions: male, CD1, mouse, microsomes, pH 7.4. It counts as in vitro ADME.
Series [4] concerns breast cancer cell line MX-1. Put plainly: MX-1 cell line proliferation assay. Conditions: Homo sapiens, MX1, 72 h; MX-1 cells, 3-day proliferation, Cell Titer Glo; read-out: Cellular proliferation: EC50. It counts as cell-based, human. A general note: ATP-based viability assays read luminescence as a measure of living cells.
Series [5] has as its target human BRD4 second bromodomain (BDII_E352-M457) (Homo sapiens (Human), UniProt O60885). The series can be described thus: TR-FRET bromodomain binding assay, BRD4 second bromodomain.
Series [6] is described as follows: Human liver microsome stability assay. It counts as in vitro ADME. Conditions: both sexes, human, microsomes, pH 7.4.

We go through 21 compounds from US9296741B2, “Bromodomain inhibitors” (priority 2012, dated 2016).

Turning to `Cn1cc(-c2cc(NS(=O)(=O)CCF)ccc2Oc2ccc(F)cc2F)c2cc[nH]c2c1=O` [Example 64, N-[4-(2,4-difluorophenoxy)-3-(6-methyl-7-oxo-6,7-dihydro-1H-pyrrolo[2,3-c]pyridin-4-yl)phenyl]-2-fluoroethanesulfonamide], the values for the half-life at 0.5 μM in series [1] and in series [3] were 3 min and 4 min, respectively. For the same compound, the inhibition constant Ki in series [2] is 53.1 nM; in series [5] it was 63.3 nM. The EC50 in series [4] came out at 773 nM.
Take `Cn1cc(-c2cc(CS(C)(=O)=O)ccc2Nc2ccc(F)cc2)c2cc[nH]c2c1=O` [Example 335, 4-{2-[(4-fluorophenyl)amino]-5-[(methylsulfonyl)methyl]phenyl}-6-methyl-1,6-dihydro-7H-pyrrolo[2,3-c]pyridin-7-one]: the half-life at 0.5 μM in series [1] came out at 34 min; in series [3] it was 54 min; in series [6] it was 35 min. In addition, the EC50 in series [4] is 22.4 nM.
The corresponding values for `Cn1cc(-c2cc(NS(=O)(=O)CC(F)(F)F)ccc2OC2CCOCC2)c2cc[nH]c2c1=O` [Example 100, 2,2,2-trifluoro-N-[3-(6-methyl-7-oxo-6,7-dihydro-1H-pyrrolo[2,3-c]pyridin-4-yl)-4-(tetrahydro-2H-pyran-4-yloxy)phenyl]ethanesulfonamide] are 71 min, 60 min, 77 min and 107 nM.
The corresponding values for `Cn1cc(-c2ccccc2CN2CCOCC2)c2cc[nH]c2c1=O` [Example 12, 6-methyl-4-[2-(morpholin-4-ylmethyl)phenyl]-1,6-dihydro-7H-pyrrolo[2,3-c]pyridin-7-one] are 10 min, 33 min, 51 min and > 3000 nM.
The corresponding values for `CCNc1ccc(Oc2ccccc2)c(-c2nn(C)c(=O)c3[nH]c(C(=O)OCC)cc23)c1` [Example 75, ethyl 4-[5-(ethylamino)-2-phenoxyphenyl]-6-methyl-7-oxo-6,7-dihydro-1H-pyrrolo[2,3-d]pyridazine-2-carboxylate] are 3 min, 4 min, 9 min and 478 nM.
As for `Cn1cc(-c2cc(NS(=O)(=O)CC(F)(F)F)ccc2OC2CCCOC2)c2cc[nH]c2c1=O` (stereo not shown) [Example 107, 2,2,2-trifluoro-N-[3-(6-methyl-7-oxo-6,7-dihydro-1H-pyrrolo[2,3-c]pyridin-4-yl)-4-(tetrahydro-2H-pyran-3-yloxy)phenyl]ethanesulfonamide], the half-life at 0.5 μM came to 16 min in series [1], 8 min in series [3] and 71 min in series [6]. Besides, the EC50 in series [4] amounted to 31 nM.
The corresponding values for `CNS(=O)(=O)c1cnc(NC2CCCCC2)c(-c2cn(C)c(=O)c3[nH]ccc23)c1` [Example 97, 6-(cyclohexylamino)-N-methyl-5-(6-methyl-7-oxo-6,7-dihydro-1H-pyrrolo[2,3-c]pyridin-4-yl)pyridine-3-sulfonamide] are 9 min, 28 min, 26 min and 14 nM.
In the case of `CCCS(=O)(=O)Nc1ccc(OC2CCOC2)c(-c2cn(C)c(=O)c3[nH]ccc23)c1` (stereo not shown) [Example 92, N-[3-(6-methyl-7-oxo-6,7-dihydro-1H-pyrrolo[2,3-c]pyridin-4-yl)-4-(tetrahydrofuran-3-yloxy)phenyl]propane-1-sulfonamide], the figures for the half-life at 0.5 μM in series [1], in series [3] and in series [6] were 20 min, 11 min and 97 min, respectively. In addition, the EC50 in series [4] was found to be 84 nM.
In the same order, the values of `Cn1cc(-c2cc(NS(=O)(=O)CC(F)(F)F)ccc2OC2CCC(F)(F)CC2)c2cc[nH]c2c1=O` [Example 103, N-{4-[(4,4-difluorocyclohexyl)oxy]-3-(6-methyl-7-oxo-6,7-dihydro-1H-pyrrolo[2,3-c]pyridin-4-yl)phenyl}-2,2,2-trifluoroethanesulfonamide] are 16 min, 37 min, 47 min and 33.8 nM.
In the same order, the values of `CCOC(=O)c1cc2c(-c3cc(N)ccc3Oc3ccccc3)nn(C)c(=O)c2[nH]1` [Example 74, ethyl 4-(5-amino-2-phenoxyphenyl)-6-methyl-7-oxo-6,7-dihydro-1H-pyrrolo[2,3-d]pyridazine-2-carboxylate] are 3 min, 5 min, 17 min and 275 nM.
In the same order, the values of `Cn1cc(-c2cc(C(=O)Nc3nccs3)ccc2Oc2ccccc2)c2cc[nH]c2c1=O` [Example 17, 3-(6-methyl-7-oxo-6,7-dihydro-1H-pyrrolo[2,3-c]pyridin-4-yl)-4-phenoxy-N-(1,3-thiazol-2-yl)benzamide] are 18 min, 16 min, 31 min and 283 nM.
Consider `Cn1cc(-c2cc(C(=O)N3CCCC3)ccc2Oc2ccc(F)cc2F)c2cc[nH]c2c1=O` [Example 55, 4-[2-(2,4-difluorophenoxy)-5-(pyrrolidin-1-ylcarbonyl)phenyl]-6-methyl-1,6-dihydro-7H-pyrrolo[2,3-c]pyridin-7-one], for which the half-life at 0.5 μM was 9 min in series [1], 13 min in series [3] and 25 min in series [6]. Besides, in series [4], the EC50 amounted to 200 nM.
The corresponding values for `CCS(=O)(=O)c1ccc(N2CCN(C)CC2)c(-c2cn(C)c(=O)c3[nH]ccc23)c1` [Example 331, 4-[5-(ethylsulfonyl)-2-(4-methylpiperazin-1-yl)phenyl]-6-methyl-1,6-dihydro-7H-pyrrolo[2,3-c]pyridin-7-one] are > 120 min, > 120 min, > 120 min and 481 nM.
In the same order, the values of `CCCS(=O)(=O)Nc1ccc(OC2CCC(F)(F)CC2)c(-c2cn(C)c(=O)c3[nH]ccc23)c1` [Example 102, N-{4-[(4,4-difluorocyclohexyl)oxy]-3-(6-methyl-7-oxo-6,7-dihydro-1H-pyrrolo[2,3-c]pyridin-4-yl)phenyl}propane-1-sulfonamide] are 3 min, 8 min, 36 min and 61.5 nM.
In the same order, the values of `CCS(=O)(=O)c1ccc(OCC2CC2)c(-c2cn(C)c(=O)c3[nH]ncc23)c1` [Example 323, 4-[2-(cyclopropylmethoxy)-5-(ethylsulfonyl)phenyl]-6-methyl-1,6-dihydro-7H-pyrazolo[3,4-c]pyridin-7-one] are > 120 min, > 120 min, > 120 min and 37.7 nM.
Take `Cn1cc(-c2cc(S(C)(=O)=O)ccc2Oc2ccc(S(C)(=O)=O)cc2)c2cc[nH]c2c1=O` [Example 270, 6-methyl-4-{5-(methylsulfonyl)-2-[4-(methylsulfonyl)phenoxy]phenyl}-1,6-dihydro-7H-pyrrolo[2,3-c]pyridin-7-one]: the half-life at 0.5 μM in series [1], in series [3] and in series [6] was > 120 min in each case. In addition, the EC50 in series [4] was 421 nM.
Turning to `CCCS(=O)(=O)Nc1ccc(OC2CCCOC2)c(-c2cn(C)c(=O)c3[nH]ccc23)c1` (stereo not shown) [Example 106, N-[3-(6-methyl-7-oxo-6,7-dihydro-1H-pyrrolo[2,3-c]pyridin-4-yl)-4-(tetrahydro-2H-pyran-3-yloxy)phenyl]propane-1-sulfonamide], the half-life at 0.5 μM in series [1] turned out to be 8 min; in series [3], 4 min; in series [6] it was 39 min. Moreover, the EC50 in series [4] was 46.8 nM.
Turning to `CNS(=O)(=O)c1cnc(Nc2ccccc2)c(-c2cn(C)c(=O)c3[nH]ccc23)c1` [Example 112, N-methyl-5-(6-methyl-7-oxo-6,7-dihydro-1H-pyrrolo[2,3-c]pyridin-4-yl)-6-(phenylamino)pyridine-3-sulfonamide], the figures for the half-life at 0.5 μM in series [1], in series [3] and in series [6] were 28 min, 51 min and 49 min, respectively. Besides, the EC50 in series [4] was determined as 240 nM.
In the same order, the values of `CCNC(=O)Cc1ccc(OCc2ccccc2)c(-c2cn(C)c(=O)c3[nH]ccc23)c1` [Example 46, 2-[4-(benzyloxy)-3-(6-methyl-7-oxo-6,7-dihydro-1H-pyrrolo[2,3-c]pyridin-4-yl)phenyl]-N-ethylacetamide] are 4 min, 13 min, 10 min and 588 nM.
In the same order, the values of `CC1CC1COc1ccc(S(C)(=O)=O)cc1-c1cn(C)c(=O)c2[nH]ccc12` (stereo not shown) [Example 223, 6-methyl-4-{2-[(2-methylcyclopropyl)methoxy]-5-(methylsulfonyl)phenyl}-1,6-dihydro-7H-pyrrolo[2,3-c]pyridin-7-one] are 24 min, 48 min, 54 min and 13.3 nM.
The corresponding values for `Cn1cc(-c2cc(S(C)(=O)=O)ccc2Oc2cccc3cnccc23)c2cc[nH]c2c1=O` [Example 161, 4-[2-(isoquinolin-5-yloxy)-5-(methylsulfonyl)phenyl]-6-methyl-1,6-dihydro-7H-pyrrolo[2,3-c]pyridin-7-one] are 10 min, 4 min, 5 min and 104 nM.

For orientation: Ki means a dissociation constant, usually derived from enzyme kinetics or from competition with a known ligand. Low readings indicate tighter binding, high ones weaker binding.
